Laboratory results: US6348468B1, “Pyridazine compounds and compositions containing the same” (Kowa Co., Ltd., priority 1997, dated 2002)

SMILES	melting point [°C]
COc1ccc(-c2cc(=O)n(CCCOc3ccccc3)nc2-c2ccc(OC)cc2)cc1 [Example 20, 5,6-bis(4-methoxyphenyl)-2-[3-(phenoxy)propyl]-2H-pyridazin-3-one]	110 to 111
COc1ccc(-c2cc(=O)n(Cc3ccncc3)nc2-c2ccc(OC)cc2)cc1 [Example 45, 5,6-bis(4-methoxyphenyl)-2-(4-pyridylmethyl)-2H-pyridazin-3-one]	182.1 to 183.1
COc1ccc(-c2nn(Cc3ccncc3)c(=O)cc2-c2ccc(Cl)cc2)cc1 [Example 50, 5-(4-chlorophenyl)-6-(4-methoxyphenyl)-2-(4-pyridylmethyl)-2H-pyridazin-3-one]	142 to 143
COc1ccc(Cn2nc(-c3ccc(SC)cc3)c(-c3ccc(F)cc3)cc2=O)cc1 [Example 62, 5-(4-fluorophenyl)-6-[4-(methylthio)phenyl]-2-(4-methoxybenzyl)-2H-pyridazin-3-one]	165.3 to 165.7
CSc1ccc(Cn2nc(-c3ccc(SC)cc3)c(-c3ccc(F)cc3)cc2=O)cc1 [Example 63, 5-(4-fluorophenyl)-6-[4-(methylthio)phenyl]-2-[4-(methylthio)benzyl]-2H-pyridazin-3-one]	116 to 116.1
C[S+]([O-])c1ccc(-c2nn(CC3CC3)c(=O)cc2-c2ccc(F)cc2)cc1 (stereo not drawn) [Example 87, 2-cyclopropylmethyl-5-(4-fluorophenyl)-6-[4-(methylsulfinyl)phenyl]-2H-pyridazin-3-one]	133.3 to 133.5
COc1ccc(Cn2nc(-c3ccc([S+](C)[O-])cc3)c(-c3ccc(F)cc3)cc2=O)cc1 (stereo not drawn) [Example 89, 5-(4-fluorophenyl)-2-(4-methoxybenzyl)-6-[4-(methylsulfinyl)phenyl]-2H-pyridazin-3-one]	81.3 to 81.5
C[S+]([O-])c1ccc(-c2nn(Cc3ccc(F)cc3F)c(=O)cc2-c2ccc(Cl)cc2)cc1 (stereo not drawn) [Example 91, 2-(2,4-difluorobenzyl)-5-(4-chlorophenyl)-6-[4-(methylsulfinyl)phenyl]-2H-pyridazin-3-one]	155.6 to 155.7
CS(=O)(=O)c1ccc(-c2nn(CC3CC3)c(=O)cc2-c2ccc(Cl)cc2)cc1 [Example 99, 5-(4-chlorophenyl)-2-cyclopropylmethyl-6-[4-(methylsulfonyl)phenyl]-2H-pyridazin-3-one]	139.7 to 139.8
CS(=O)(=O)c1ccc(-c2nn(Cc3ccc(Cl)cc3Cl)c(=O)cc2-c2ccc(Cl)cc2)cc1 [Example 104, 5-(4-chlorophenyl)-2-(2,4-dichlorobenzyl)-6-[4-(methylsulfonyl)phenyl]-2H-pyridazin-3-one]	232.7 to 234.5
CS(=O)(=O)c1ccc(-c2nn(Cc3cccnc3)c(=O)cc2-c2ccc(Cl)cc2)cc1 [Example 106, 5-(4-chlorophenyl)-6-[4-(methylsulfonyl)phenyl]-2-(3-pyridylmethyl)-2H-pyridazin-3-one]	248 to 248.1
CS(=O)(=O)c1ccc(-c2nn(CCCc3ccccc3)c(=O)cc2-c2ccc(Cl)cc2)cc1 [Example 108, 5-(4-chlorophenyl)-6-[4-(methylsulfonyl)phenyl]-2-(3-phenylpropyl)-2H-pyridazin-3-one]	70.2 to 71.6
COc1ccc(-c2cc(=O)n(Cc3ccc(C(=O)O)cc3)nc2-c2ccc(OC)cc2)cc1 [Example 112, 5,6-bis(4-methoxyphenyl)-2-(4-carboxybenzyl)-2H-pyridazin-3-one]	241 to 242
COc1ccc(-c2cc(=O)n(CCC(=O)NCc3ccccc3)nc2-c2ccc(OC)cc2)cc1 [Example 115, 5,6-bis(4-methoxyphenyl)-2-[2-(benzylaminocarbonyl)ethyl]-2H-pyridazin-3-one]	135 to 137
CSc1ccc(C2=NN(Cc3ccccc3)C(=O)CC2c2ccc(Cl)cc2)cc1 (stereo not drawn) [Example 121, 2-benzyl-5-(4-chlorophenyl)-4,5-dihydro-6-[4-(methylthio)phenyl]-2H-pyridazin-3-one]	113.5 to 113.9
CSc1ccc(-c2n[nH]c(=S)cc2-c2ccc(F)cc2)cc1 [Example 136, 5-(4-fluorophenyl)-6-[4-(methylthio)phenyl]-2H-pyridazine-3-thione]	218.7 to 218.9

Continued, values first:

melting point [°C]	SMILES
197.4 to 198.2	CSc1ccc(-c2n[nH]c(=O)cc2-c2ccc(F)cc2)cc1 [Example 9, 5-(4-fluorophenyl)-6-[4-(methylthio)phenyl]-2H-pyridazin-3-one]
124.2 to 127.3	COc1ccc(-c2cc(=O)n(Cc3ccc(Cl)cc3)nc2-c2ccc(OC)cc2)cc1 [Example 33, 5,6-bis(4-methoxyphenyl)-2-(4-chlorobenzyl)-2H-pyridazin-3-one]
185.5 to 186.6	COC(=O)c1ccc(Cn2nc(-c3ccc(OC)cc3)c(-c3ccc(OC)cc3)cc2=O)cc1 [Example 42, 5,6-bis(4-methoxyphenyl)-2-(4-methoxycarbonylbenzyl)-2H-pyridazin-3-one]
116 to 117	COc1ccc(-c2cc(=O)n(Cc3ccccn3)nc2-c2ccc(OC)cc2)cc1 [Example 43, 5,6-bis(4-methoxyphenyl)-2-(2-pyridylmethyl)-2H-pyridazin-3-one]
165 to 167	COc1ccc(-c2nn(Cc3ccccc3)c(=O)cc2-c2ccc(Cl)cc2)cc1 [Example 49, 5-(4-chlorophenyl)-6-(4-methoxyphenyl)-2-benzyl-2H-pyridazin-3-one]
157.4 to 157.5	CSc1ccc(-c2nn(Cc3ccc(F)cc3F)c(=O)cc2-c2ccc(Cl)cc2)cc1 [Example 53, 5-(4-chlorophenyl)-6-[4-(methylthio)phenyl]-2-(2,4-difluorobenzyl)-2H-pyridazin-3-one]
154.5 to 155	CSc1ccc(-c2nn(Cc3ccc(Cl)cc3Cl)c(=O)cc2-c2ccc(Cl)cc2)cc1 [Example 54, 5-(4-chlorophenyl)-6-[4-(methylthio)phenyl]-2-(2,4-dichlorobenzyl)-2H-pyridazin-3-one]
109.3 to 110.2	CSc1ccc(-c2nn(CC=Cc3ccccc3)c(=O)cc2-c2ccc(Cl)cc2)cc1 [Example 56, 5-(4-chlorophenyl)-6-[4-(methylthio)phenyl]-2-cinnamyl-2H-pyridazin-3-one]
159.8 to 160.7	CSc1ccc(-c2nn(Cc3cccnc3)c(=O)cc2-c2ccc(F)cc2)cc1 [Example 67, 5-(4-fluorophenyl)-6-[4-(methylthio)phenyl]-2-(3-pyridylmethyl)-2H-pyridazin-3-one]
157.3 to 158.4	CSc1ccc(-c2nn(Cc3ccccc3)c(=O)cc2-c2ccccc2)cc1 [Example 71, 2-benzyl-6-[4-(methylthio)phenyl]-5-phenyl-2H-pyridazin-3-one]
143.7 to 144.7	C[S+]([O-])c1ccc(-c2nn(Cc3ccccc3)c(=O)cc2-c2ccc(Cl)cc2)cc1 (stereo not drawn) [Example 85, 2-benzyl-5-(4-chlorophenyl)-6-[4-(methylsulfinyl)phenyl]-2H-pyridazin-3-one]
152.2 to 152.3	C[S+]([O-])c1ccc(-c2nn(CC3CC3)c(=O)cc2-c2ccc(Cl)cc2)cc1 (stereo not drawn) [Example 86, 5-(4-chlorophenyl)-2-cyclopropylmethyl-6-[4-(methylsulfinyl)phenyl]-2H-pyridazin-3-one]
236.5 to 237.3	C[S+]([O-])c1ccc(-c2nn(Cc3ccc(Cl)cc3Cl)c(=O)cc2-c2ccc(Cl)cc2)cc1 (stereo not drawn) [Example 92, 5-(4-chlorophenyl)-2-(2,4-dichlorobenzyl)-6-[4-(methylsulfinyl)phenyl]-2H-pyridazin-3-one]
103.2 to 105.7	CS(=O)(=O)c1ccc(-c2nn(Cc3ccccc3)c(=O)cc2-c2ccc(Cl)cc2)cc1 [Example 97, 2-benzyl-5-(4-chlorophenyl)-6-[4-(methylsulfonyl)phenyl]-2H-pyridazin-3-one]
254 to 254.7	CS(=O)(=O)c1ccc(-c2n[nH]c(=O)cc2-c2ccc(Cl)cc2)cc1 [Example 98, 5-(4-chlorophenyl)-6-[4-(methylsulfonyl)phenyl]-2H-pyridazin-3-one]
123.8 to 123.9	CS(=O)(=O)c1ccc(-c2nn(CC3CC3)c(=O)cc2-c2ccc(F)cc2)cc1 [Example 100, 2-cyclopropylmethyl-5-(4-fluorophenyl)-6-[4-(methylsulfonyl)phenyl]-2H-pyridazin-3-one]
173.8 to 173.9	CS(=O)(=O)c1ccc(-c2nn(Cc3ccc(F)cc3F)c(=O)cc2-c2ccc(Cl)cc2)cc1 [Example 103, 2-(2,4-difluorobenzyl)-5-(4-chlorophenyl)-6-[4-(methylsulfonyl)phenyl]-2H-pyridazin-3-one]
253.3 to 254.5	CS(=O)(=O)c1ccc(-c2nn(Cc3ccncc3)c(=O)cc2-c2ccc(F)cc2)cc1 [Example 107, 5-(4-fluorophenyl)-6-[4-(methylsulfonyl)phenyl]-2-(4-pyridylmethyl)-2H-pyridazin-3-one]
211 to 212	CS(=O)(=O)c1ccc(-c2nn(Cc3ccccc3)c(=O)cc2-c2ccccc2)cc1 [Example 109, 2-benzyl-6-[4-(methylsulfonyl)phenyl]-5-phenyl-2H-pyridazin-3-one]
176.5 to 176.6	CSc1ccc(-c2nn(Cc3ccc(F)cc3F)c(=S)cc2-c2ccc(Cl)cc2)cc1 [Example 133, 5-(4-chlorophenyl)-2-(2,4-difluorobenzyl)-6-[4-(methylthio)phenyl]-2H-pyridazine-3-thione]
108.1 to 108.2	CSc1ccc(-c2nn(Cc3ccccc3)c(=S)cc2-c2ccc(F)cc2)cc1 [Example 138, 2-benzyl-5-(4-fluorophenyl)-6-[4-(methylthio)phenyl]-2H-pyridazine-3-thione]
181.8 to 182	CS(=O)(=O)c1ccc(-c2nn(Cc3ccccc3)c(=S)cc2-c2ccc(F)cc2)cc1 [Example 139, 2-benzyl-5-(4-fluorophenyl)-6-[4-(methylsulfonyl)phenyl]-2H-pyridazine-3-thione]
112.7 to 112.9	COc1ccc(Cn2nc(-c3ccc(SC)cc3)c(-c3ccc(F)cc3)cc2=S)cc1 [Example 140, 5-(4-fluorophenyl)-2-(4-methoxybenzyl)-6-(4-(methylthio)phenyl]-2H-pyridazine-3-thione]
